# Experimental data taken from patent US20240174696A1, “2,8-DIAZASPIRO[4.5]DECANE COMPOUNDS” (Genentech, Inc., priority 2021, published 2024).
# Counter-ions that a name gives are not always drawn.
# Target: Human LATS2 catalytic domain (Homo sapiens (Human), UniProt Q9NRM7)
# Assay: LATS2 High ATP HTRF Assay
# Format: biochemical
# Conditions: no asterisk: LATS2 High ATP HTRF Assay, 5000 μM ATP, 0.05 nM LATS2
# Procedure: Human LATS2 catalytic domain which contains the amino acids G553-V1088 (accession NP_055387) was purified in-house. The LATS2 catalytic domain was co-purified with Mob1b (accession NP_775739). The LATS2 biochemical HTRF assay was performed using the HTRF KinEASE-STK S1 Kit (Cisbio, Cat #62ST1PEC), following the protocol from the manufacturer. Compounds were dispensed by the Echo Liquid Handler (Labcyte) into a white 384-well plate (PerkinElmer, Cat #6008289). 3 uL of 2×LATS2 enzyme solution was added to the compounds, following by a 10 minute incubation at room temperature. Then, 2×ATP and STK S1 peptide solution was added to initiate the one hour enzyme reaction at room temperature. The final condition of the reaction was 0.2 nM LATS2, 50 μM ATP, 0.5 μM STK S1 peptide in 50 mM HEPES pH7.2, 10 mM MgCl2, 0.1% BGG, 0.005% Brij-35, 1 mM DTT. The reaction was quenched by adding 6 uL of the detection mixture which contained Streptavidin XL665 and STK Antibody-Cryptate (Cisbio), incubate for 1 hour at room temperature. The HTRF (665 nm/620 nm) signal was read on the Envision plater reader (PerkinElmer). The IC50 values were determined by fitting the % inhibition with a nonlinear four-parameter logistical equation. The Ki values were calculated using the Cheng-Prusoff equation for a competitive inhibitor, IC50═Ki (1+S/Km)+M [E] with ATP Km for LATS2=105 μM.
# The LATS2 high ATP HTRF assay was performed using the same protocol as the Standard LATS2 HTRF assay. The final condition of the reaction was 0.05 nM LATS2, 5000 μM ATP, 0.5 μM STK S1 peptide in 50 mM HEPES pH7.2, 10 mM MgCl2, 0.1% BGG, 0.005% Brij-35, 1 mM DTT and the 2 hours enzyme reaction at room temperature.
# Chain of Human LATS2 catalytic domain (Q9NRM7 553-1088): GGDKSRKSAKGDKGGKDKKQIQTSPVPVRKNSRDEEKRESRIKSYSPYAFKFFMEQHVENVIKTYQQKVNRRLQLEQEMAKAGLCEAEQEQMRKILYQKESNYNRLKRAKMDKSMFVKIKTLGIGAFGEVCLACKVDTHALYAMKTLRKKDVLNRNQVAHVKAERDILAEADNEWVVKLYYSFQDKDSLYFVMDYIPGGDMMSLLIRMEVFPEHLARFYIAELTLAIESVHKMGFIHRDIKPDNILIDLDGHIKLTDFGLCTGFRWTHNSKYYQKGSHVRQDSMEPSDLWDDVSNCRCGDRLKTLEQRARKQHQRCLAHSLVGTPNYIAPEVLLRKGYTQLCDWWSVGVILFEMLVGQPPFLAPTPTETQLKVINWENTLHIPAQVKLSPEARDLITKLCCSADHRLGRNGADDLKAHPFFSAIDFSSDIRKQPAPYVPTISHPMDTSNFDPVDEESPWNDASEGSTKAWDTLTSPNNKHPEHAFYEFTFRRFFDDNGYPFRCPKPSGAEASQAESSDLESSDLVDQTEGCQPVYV
# Chain of Human LATS2 catalytic domain (Q7L9L4 whole entry partner, the tested form may be a part): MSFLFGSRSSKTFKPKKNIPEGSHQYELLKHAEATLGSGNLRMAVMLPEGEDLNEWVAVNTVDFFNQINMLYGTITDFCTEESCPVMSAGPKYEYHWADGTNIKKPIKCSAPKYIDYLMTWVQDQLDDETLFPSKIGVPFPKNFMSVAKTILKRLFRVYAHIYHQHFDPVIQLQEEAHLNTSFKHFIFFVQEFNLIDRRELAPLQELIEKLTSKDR
row,SMILES,Ki
1,"O[C@H]1CC[C@@H]1N1CCC2(CCN(c3nc(-c4ccncc4)nc4cnccc34)CC2)C1 (single isomer, unassigned) [Compound 178]",0.97 nM
2,"CC(=O)N1CCC2(CCN(c3nc(-c4ccncc4)nc4cnccc34)CC2)C1 [Compound 125, 1-(8-(2-(pyridin-4-yl)pyrido[3,4-d]pyrimidin-4-yl)-2,8-diazaspiro[4.5]decan-2-yl)ethan-1-one]",16.7 nM
3,"c1cc(-c2nc(N3CCC4(CCN(c5cc[nH]n5)C4)CC3)c3ccncc3n2)ccn1 [Compound 139, 4-(2-(1H-pyrazol-3-yl)-2,8-diazaspiro[4.5]decan-8-yl)-2-(pyridin-4-yl)pyrido[3,4-d]pyrimidine]",19.1 nM
4,"c1ccc(N2CCC3(CCN(c4nc(-c5ccncc5)nc5cnccc45)CC3)C2)cc1 [Compound 140, 4-(2-phenyl-2,8-diazaspiro[4.5]decan-8-yl)-2-(pyridin-4-yl)pyrido[3,4-d]pyrimidine]",88.4 nM
5,"N#Cc1[nH]ncc1-c1nc(N2CCC3(CCNC3)CC2)c2ccncc2n1 [Compound 155, 4-(4-(2,8-diazaspiro[4.5]decan-8-yl)pyrido[3,4-d]pyrimidin-2-yl)-1H-pyrazole-5-carbonitrile]",51.4 nM
6,"CCC(=O)NCc1cc2c(N3CCC4(CCNC4)CC3)nc(-c3ccncc3)nc2cn1 [Compound 159, N-((2-(pyridin-4-yl)-4-(2,8-diazaspiro[4.5]decan-8-yl)pyrido[3,4-d]pyrimidin-6-yl)methyl)propionamide]",6.58 nM
7,"CN(C)C(=O)C1CC2(CCN(c3nc(-c4ccncc4)nc4cnccc34)CC2)CN1 (stereo not drawn) [Compound 173, N,N-dimethyl-8-(2-(pyridin-4-yl)pyrido[3,4-d]pyrimidin-4-yl)-2,8-diazaspiro[4.5]decane-3-carboxamide]",7.4 nM
8,"O=C(C1CC2(CCN(c3nc(-c4ccncc4)nc4cnccc34)CC2)CN1)N1CCCC1 (stereo not drawn) [Compound 174, (8-(2-(pyridin-4-yl)pyrido[3,4-d]pyrimidin-4-yl)-2,8-diazaspiro[4.5]decan-3-yl)(pyrrolidin-1-yl)methanone]",11.1 nM
9,"O=C(C1CC2(CCN(c3nc(-c4ccncc4)nc4cnccc34)CC2)CN1)N1CCOCC1 (stereo not drawn) [Compound 175, morpholino(8-(2-(pyridin-4-yl)pyrido[3,4-d]pyrimidin-4-yl)-2,8-diazaspiro[4.5]decan-3-yl)methanone]",22.6 nM
10,"N#Cc1cnccc1-c1nc(N2CCC3(CCNC3)CC2)c2ccncc2n1 [Compound 183, 4-(4-(2,8-diazaspiro[4.5]decan-8-yl)pyrido[3,4-d]pyrimidin-2-yl)nicotinonitrile]",17.5 nM
11,"Fc1[nH]ncc1-c1nc(N2CCC3(CCNC3)CC2)c2ccncc2n1 [Compound 188, 2-(5-fluoro-1H-pyrazol-4-yl)-4-(2,8-diazaspiro[4.5]decan-8-yl)pyrido[3,4-d]pyrimidine]",5.96 nM
12,"c1cc(-c2nc(N3CCC4(CCNC4)CC3)c3c(C4CC4)cncc3n2)ccn1 [Compound 191, 5-cyclopropyl-2-(pyridin-4-yl)-4-(2,8-diazaspiro[4.5]decan-8-yl)pyrido[3,4-d]pyrimidine]",0.028 nM
13,"FC(F)(F)Cc1nccc2c(N3CCC4(CCNC4)CC3)nc(-c3ccncc3)nc12 [Compound 192, 2-(pyridin-4-yl)-4-(2,8-diazaspiro[4.5]decan-8-yl)-8-(2,2,2-trifluoroethyl)pyrido[3,4-d]pyrimidine]",1.38 nM
14,"FC(F)(F)Cc1cc2c(N3CCC4(CCNC4)CC3)nc(-c3ccncc3)nc2cn1 [Compound 193, 2-(pyridin-4-yl)-4-(2,8-diazaspiro[4.5]decan-8-yl)-6-(2,2,2-trifluoroethyl)pyrido[3,4-d]pyrimidine]",0.041 nM
15,"Cc1n[nH]cc1-c1nc(N2CCC3(CCN(C)C3)CC2)c2cc(CC(F)(F)F)ncc2n1 [Compound 194, 2-(3-methyl-1H-pyrazol-4-yl)-4-(2-methyl-2,8-diazaspiro[4.5]decan-8-yl)-6-(2,2,2-trifluoroethyl)pyrido[3,4-d]pyrimidine]",0.12 nM
16,"CN1CCC2(CCN(c3nc(-c4ccncc4)nc4cnc(CC(F)(F)F)cc34)CC2)C1 [Compound 195, 4-(2-methyl-2,8-diazaspiro[4.5]decan-8-yl)-2-(pyridin-4-yl)-6-(2,2,2-trifluoroethyl)pyrido[3,4-d]pyrimidine]",0.039 nM
17,"Cc1cnsc1-c1nc(N2CCC3(CCNC3)CC2)c2ccncc2n1 [Compound 244, 5-(4-(2,8-diazaspiro[4.5]decan-8-yl)pyrido[3,4-d]pyrimidin-2-yl)-4-methylisothiazole]",13 nM
18,"CC(=O)N1CC(Oc2cncc3nc(-c4ccncc4)nc(N4CCC5(CCN(C)C5)CC4)c23)C1 [Compound 278, 1-(3-((4-(2-Methyl-2,8-diazaspiro[4.5]decan-8-yl)-2-(pyridin-4-yl)pyrido[3,4-d]pyrimidin-5-yl)oxy)azetidin-1-yl)ethan-1-one]",11 nM
19,"COc1cncc2nc(-c3cn[nH]c3C)nc(N3CCC4(CCN(CC(F)F)C4)CC3)c12 [Compound 281, 4-(2-(2,2-difluoroethyl)-2,8-diazaspiro[4.5]decan-8-yl)-5-methoxy-2-(5-methyl-1H-pyrazol-4-yl)pyrido[3,4-d]pyrimidine]",0.015 nM
20,"COc1cncc2nc(-c3ccncc3)nc(N3CCC4(CCN(CC5(F)COC5)C4)CC3)c12 [Compound 282, 4-[2-[(3-Fluorooxetan-3-yl)methyl]-2,8-diazaspiro[4.5]decan-8-yl]-5-methoxy-2-(4-pyridyl)pyrido[3,4-d]pyrimidine]",0.039 nM
21,"COc1cncc2nc(-c3ccncc3)nc(N3CCC4(CCN(CC(C)(O)C(F)(F)F)C4)CC3)c12 (stereo not drawn) [Compound 283, 1,1,1-Trifluoro-3-[8-[5-methoxy-2-(4-pyridyl)pyrido[3,4-d]pyrimidin-4-yl]-2,8-diazaspiro[4.5]decan-2-yl]-2-methyl-propan-2-ol]",0.096 nM
22,"CN1CCC2(CCN(c3nc(-c4ccncc4)nc4c(C#N)nccc34)CC2)C1 [Compound 284, 4-(2-Methyl-2,8-diazaspiro[4.5]decan-8-yl)-2-(pyridin-4-yl)pyrido[3,4-d]pyrimidine-8-carbonitrile]",4.1 nM
23,"c1cc(-c2cc(N3CCC4(CCNC4)CC3)c3ccncc3n2)ccn1 [Example 200, 2-(Pyridin-4-yl)-4-(2,8-diazaspiro[4.5]decan-8-yl)-1,7-naphthyridine]",14.6 nM
24,"c1cc(-c2cc(N3CCC4(CCNC4)CC3)c3ccncc3n2)ncn1 [Example 201, 2-(pyrimidin-4-yl)-4-(2,8-diazaspiro[4.5]decan-8-yl)-1,7-naphthyridine trifluoroacetate]",11.3 nM
25,"COc1nccc2c(N3CCC4(CCN(C)C4)CC3)nc(-c3ccncc3)nc12 [Example 203, 8-methoxy-4-(2-methyl-2,8-diazaspiro[4.5]decan-8-yl)-2-(pyridin-4-yl)pyrido[3,4-d]pyrimidine]",80.2 nM
26,"[O-][n+]1ccc2c(N3CCC4(CCNC4)CC3)nc(-c3ccncc3)nc2c1 [Example 207, 2-(pyridin-4-yl)-4-(2,8-diazaspiro[4.5]decan-8-yl)pyrido[3,4-d]pyrimidine 7-oxide]",23 nM
27,"Cc1nn(C)cc1-c1nc(N2CCC3(CC2)CCN(C2CCCC2)C3)c2ccncc2n1 [Example 208, 4-(2-cyclopentyl-2,8-diazaspiro[4.5]decan-8-yl)-2-(1,3-dimethyl-1H-pyrazol-4-yl)pyrido[3,4-d]pyrimidine]",60 nM
28,"CN1CCC2(CCN(c3nc(-c4ccncc4)nc4cnc(C(F)(F)F)cc34)CC2)C1 [Example 209, 4-(2-methyl-2,8-diazaspiro[4.5]decan-8-yl)-2-(pyridin-4-yl)-6-(trifluoromethyl)pyrido[3,4-d]pyrimidine]",45 nM
29,"Cc1n[nH]cc1-c1nc(N2CCC3(CCN(CCS(=O)(=O)N(C)C)C3)CC2)c2ccncc2n1 [Example 210, N,N-dimethyl-2-(8-(2-(3-methyl-1H-pyrazol-4-yl)pyrido[3,4-d]pyrimidin-4-yl)-2,8-diazaspiro[4.5]decan-2-yl)ethanesulfonamide]",0.25 nM
30,"Cc1n[nH]cc1-c1nc(N2CCC3(CCNC3)CC2)c2ccnc(O)c2n1 [Example 237, 2-(3-methyl-1H-pyrazol-4-yl)-4-(2,8-diazaspiro[4.5]decan-8-yl)pyrido[3,4-d]pyrimidin-8-ol]",19 nM
